Measured values as given in PubChem BioAssay (NCI).
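Five concentrations, 48 hours, 96-well plates. TGI marks complete inhibition of growth.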

Tests used:
Test in all cases: growth of human tumour cells (NCI), 48 h
K-562 leukemia = tested on: K-562 leukemia
SF-268 CNS = tested on: SF-268 CNS
EKVX NSCLC = tested on: EKVX NSCLC
NCI-H522 lung = tested on: NCI-H522 lung
U251 CNS = tested on: U251 CNS
SNB-19 CNS = tested on: SNB-19 CNS
786-0 renal = tested on: 786-0 renal
TK-10 renal = tested on: TK-10 renal
CCRF-CEM leukemia = tested on: CCRF-CEM leukemia
LOX IMVI melanoma = tested on: LOX IMVI melanoma
UO-31 renal = tested on: UO-31 renal
SK-MEL-2 melanoma = tested on: SK-MEL-2 melanoma
HT29 colon = tested on: HT29 colon
SF-295 CNS = tested on: SF-295 CNS
OVCAR-8 ovarian = tested on: OVCAR-8 ovarian
MDA-N = tested on: MDA-N
A498 renal = tested on: A498 renal
A549 NSCLC = tested on: A549 NSCLC
IGROV1 ovarian = tested on: IGROV1 ovarian
HCC-2998 colon = tested on: HCC-2998 colon
NCI-H460 lung = tested on: NCI-H460 lung
HOP-92 NSCLC = tested on: HOP-92 NSCLC
MCF7 breast = tested on: MCF7 breast
NCI-H226 lung = tested on: NCI-H226 lung
SW-620 colon = tested on: SW-620 colon
DU-145 prostate = tested on: DU-145 prostate
MALME-3M melanoma = tested on: MALME-3M melanoma
UACC-62 melanoma = tested on: UACC-62 melanoma
HOP-62 NSCLC = tested on: HOP-62 NSCLC
UACC-257 melanoma = tested on: UACC-257 melanoma
KM12 colon = tested on: KM12 colon
PC-3 prostate = tested on: PC-3 prostate
OVCAR-3 ovarian = tested on: OVCAR-3 ovarian
MOLT-4 leukemia = tested on: MOLT-4 leukemia
SF-539 CNS = tested on: SF-539 CNS
OVCAR-4 ovarian = tested on: OVCAR-4 ovarian
HS 578T breast = tested on: HS 578T breast
SK-MEL-28 melanoma = tested on: SK-MEL-28 melanoma
NCI/ADR-RES ovarian = tested on: NCI/ADR-RES ovarian
T-47D breast = tested on: T-47D breast
SR leukemia = tested on: SR leukemia
SNB-75 CNS = tested on: SNB-75 CNS
M14 melanoma = tested on: M14 melanoma
HL-60(TB) leukemia = tested on: HL-60(TB) leukemia
SN12C renal = tested on: SN12C renal
NCI-H23 lung = tested on: NCI-H23 lung
MDA-MB-435 = tested on: MDA-MB-435
CAKI-1 renal = tested on: CAKI-1 renal
COLO 205 colon = tested on: COLO 205 colon
HCT-15 colon = tested on: HCT-15 colon
HCT-116 colon = tested on: HCT-116 colon
ACHN renal = tested on: ACHN renal
MDA-MB-231 breast = tested on: MDA-MB-231 breast
BT-549 breast = tested on: BT-549 breast
SK-MEL-5 melanoma = tested on: SK-MEL-5 melanoma

## CC(=O)Oc1ccn2nc(C)c(Br)c2c1Br
K-562 leukemia
  TGI: 50.1 µM
SF-268 CNS
  TGI: > 90.1 µM
EKVX NSCLC
  TGI: > 58.5 µM
NCI-H522 lung
  TGI: 36.8 µM
U251 CNS
  TGI: > 100 µM
SNB-19 CNS
  TGI: > 100 µM
786-0 renal
  TGI: > 100 µM
TK-10 renal
  TGI: > 94.8 µM
CCRF-CEM leukemia
  TGI: 47.1 µM
LOX IMVI melanoma
  TGI: 36 µM
UO-31 renal
  TGI: > 29.6 µM
SK-MEL-2 melanoma
  TGI: > 67 µM
HT29 colon
  TGI: 44.6 µM
SF-295 CNS
  TGI: > 89.3 µM
OVCAR-8 ovarian
  TGI: > 83.7 µM
MDA-N
  TGI: 32.6 µM
A498 renal
  TGI: 72.9 µM
A549 NSCLC
  TGI: 57.6 µM
IGROV1 ovarian
  TGI: > 72.2 µM
HCC-2998 colon
  TGI: 49.9 µM
NCI-H460 lung
  TGI: 53.1 µM
HOP-92 NSCLC
  TGI: 36.7 µM
MCF7 breast
  TGI: 36.1 µM
NCI-H226 lung
  TGI: > 60.2 µM
SW-620 colon
  TGI: > 73.6 µM
DU-145 prostate
  TGI: > 100 µM
MALME-3M melanoma
  TGI: 40.6 µM
UACC-62 melanoma
  TGI: 37.5 µM
HOP-62 NSCLC
  TGI: > 87 µM
UACC-257 melanoma
  TGI: 32.2 µM
KM12 colon
  TGI: > 100 µM
PC-3 prostate
  TGI: 43.7 µM
OVCAR-3 ovarian
  TGI: 33.4 µM
MOLT-4 leukemia
  TGI: 34.9 µM
SF-539 CNS
  TGI: 45.7 µM
OVCAR-4 ovarian
  TGI: 30.6 µM
HS 578T breast
  TGI: > 100 µM
SK-MEL-28 melanoma
  TGI: 45 µM
NCI/ADR-RES ovarian
  TGI: > 100 µM
T-47D breast
  TGI: > 76.8 µM
SR leukemia
  TGI: > 100 µM
SNB-75 CNS
  TGI: > 56.2 µM
M14 melanoma
  TGI: 34.7 µM
HL-60(TB) leukemia
  TGI: > 66.5 µM
SN12C renal
  TGI: > 57.8 µM
NCI-H23 lung
  TGI: 34.8 µM
MDA-MB-435
  TGI: 35.2 µM
CAKI-1 renal
  TGI: 21.7 µM
COLO 205 colon
  TGI: 38 µM
HCT-15 colon
  TGI: 33.6 µM
HCT-116 colon
  TGI: > 58.7 µM
ACHN renal
  TGI: 31.4 µM
MDA-MB-231 breast
  TGI: 54.3 µM
BT-549 breast
  TGI: 60.2 µM
SK-MEL-5 melanoma
  TGI: 31.7 µM
